Data reported in PMC5769417, “Single- and Multiple-Dose Trials to Determine the Pharmacokinetics, Safety, Tolerability, and Sex Effect of Oral Ginsenoside Compound K in Healthy Chinese Volunteers” (Frontiers in Pharmacology, 2018).
Where two headings read alike, the source gives them in different places. Marks after values point to notes of the source that are not given here.

Columns and labels:
[1] = system: healthy Chinese volunteers; assay: Multiple-dose trial, safety and tolerability (adverse events); assay type: in vivo, human
Procedure: Multiple-dose pharmacokinetics: The multiple-dose trial could be carried out on the condition that a single-dose of CK (25–800 mg) was safe and well tolerated in healthy Chinese volunteers. After breakfast, one of three doses (100, 200, or 400 mg) of CK or placebo were given to 36 eligible subjects randomized to each dose (male:female = 1:1), in which 10 were on active treatment and 2 were on matching placebo. CK were administered as a single dose on day 1 and then as repeated doses for 9 consecutive days (days 7–15 of the trial), and the drug was administered once-daily in the morning after meals.
Safety was evaluated by continuous observation of adverse events (AEs), monitoring of vital signs, ECG, hematology, biochemistry, and urinalysis at baseline, during the trials at the set time points following drug administration, and at follow-up visits after study completion. AEs were classified by their intensity into mild, moderate and severe. Additionally, the AEs were also classified according their relationship to the test drug as positive, probable, possible, remote, or unrelated. The severity of the AEs, as well as their relationship to test drug, was assessed by a qualified physician in the unit. Clinically relevant changes in vital signs, ECG and laboratory parameters were defined as marked abnormalities. ECG were recorded in the semisupine position after a rest of at least 5 min. It is worth noting that all the information, including symptoms and signs after dosing or the medications that the subjects were concomitantly taking must be recorded on the case-report form by investigators. All available data from subjects who received the test drug and placebo were included in the summaries of the safety data and were descriptively analyzed. In addition, the differences between laboratory parameters at baseline and after drug treatment were analyzed to determine whether there were clinical significances.
All the safety data, including vital signs, laboratory indexes and ECG, were descriptively analyzed, and the statistical analyses were conducted to evaluate the effects of the test drug by comparing the differences between before and after drug treatment, between the test drug group and the placebo group and among the different dose groups.

[2] = Phase 0 cross-over trial, sex differences in pharmacokinetics; assay type: in vivo, human; settings: phase 0 trial; for half-life / Tmax: human, plasma, oral; for Tmax: read-out: Tmax, median (range); for Cmax/D, dose-normalized Cmax: in ng·ml⁻¹·mg⁻¹
Procedure: Cmax/D, dose-normalized Cmax value; Tmax, time to maximum plasma concentration; t1/2, terminal half-life; AUClast/D, dose-normalized AUClast value; AUCinf/D, dose-normalized AUCinf value; All values are presented as mean ± SD, except for Tmax, which is expressed as median (range). SD, standard deviation. PK parameters were compared between male and female by independent-sample t-test. A non-parametric test was performed on the Tmax and t1/2. * Compared with Male, p < 0.05. These were the results of phase 0 trial, which was a cross-over clinical trial and included 12 males and 12 females.

[3] = system: CYP2C9; parameters: method as in Xiao et al., 2016; settings: human liver microsomes, human recombinant CYPs; ref Xiao et al., 2016; cited from earlier work

For `CC(C)=CCC[C@](C)(OC1O[C@H](CO)[C@@H](O)[C@H](O)[C@H]1O)[C@H]1CC[C@]2(C)[C@@H]1[C@H](O)C[C@@H]1[C@@]3(C)CC[C@H](O)C(C)(C)[C@@H]3CC[C@]12C` (stereo partly drawn) [CK, 20-O-beta-D-glucopyranosyl-20(S)-protopanaxadiol], the “AEs positively relevant to CK” value [1] was 20 cases, the “AEs possibly related to CK” value [1] was 14 cases and the “AEs probably related to CK” value [1] was 23 cases. For the same compound, the “Alkaline phosphatase increased (study drug-related AE)” value (“Alkaline phosphatase increased” for short) ([1]; 100 mg (n = 10)) was 0 number of subjects (%), the “Any AEs (study drug-related)” value ([1]; 100 mg (n = 10)) was 7 (19.4) number of subjects (%) and the “Bellyache (study drug-related AE)” value ([1]; 100 mg (n = 10)) was 0 number of subjects (%). The “Blood white cells increased (study drug-related AE)” value (shortened to “Blood white cells increased”) ([1]; 100 mg (n = 10)) was 0 number of subjects (%), the “Diarrhea (study drug-related AE)” value ([1]; 100 mg (n = 10)) was 3 (8.3) number of subjects (%) and the “Direct bilirubin increased (study drug-related AE)” value (“Direct bilirubin increased” for short) ([1]; 100 mg (n = 10)) was 2 (5.6) number of subjects (%). For the same compound, the “Dizziness (study drug-related AE)” value ([1]; 100 mg (n = 10)) was 4 (11.1) number of subjects (%), the “Headache (study drug-related AE)” value ([1]; 100 mg (n = 10)) was 0 number of subjects (%) and the “Loss of appetite (study drug-related AE)” value ([1]; 100 mg (n = 10)) was 2 (5.6) number of subjects (%). The “Nausea (study drug-related AE)” value ([1]; 100 mg (n = 10)) was 1 (2.8) number of subjects (%), the “Rash (study drug-related AE)” value ([1]; 100 mg (n = 10)) was 0 number of subjects (%) and the “Subcutaneous bleeding (double forearm) (study drug-related AE)” value (shortened to “Subcutaneous bleeding (double forearm)”) ([1]; 100 mg (n = 10)) was 0 number of subjects (%). The “Total bilirubin increased (study drug-related AE)” value (“Total bilirubin increased” below) ([1]; 100 mg (n = 10)) was 0 number of subjects (%), the “Alkaline phosphatase increased” value ([1]; 200 mg (n = 10)) was 1 (2.8) number of subjects (%) and the “Any AEs (study drug-related)” value ([1]; 200 mg (n = 10)) was 10 (27.8) number of subjects (%). The “Bellyache (study drug-related AE)” value ([1]; 200 mg (n = 10)) was 4 (11.1) number of subjects (%), the “Blood white cells increased” value ([1]; 200 mg (n = 10)) was 0 number of subjects (%) and the “Diarrhea (study drug-related AE)” value ([1]; 200 mg (n = 10)) was 9 (25) number of subjects (%). The “Direct bilirubin increased” value ([1]; 200 mg (n = 10)) was 1 (2.8) number of subjects (%), the “Dizziness (study drug-related AE)” value ([1]; 200 mg (n = 10)) was 1 (2.8) number of subjects (%) and the “Headache (study drug-related AE)” value ([1]; 200 mg (n = 10)) was 0 number of subjects (%). The “Loss of appetite (study drug-related AE)” value ([1]; 200 mg (n = 10)) was 0 number of subjects (%), the “Nausea (study drug-related AE)” value ([1]; 200 mg (n = 10)) was 0 number of subjects (%) and the “Rash (study drug-related AE)” value ([1]; 200 mg (n = 10)) was 0 number of subjects (%). The “Subcutaneous bleeding (double forearm)” value ([1]; 200 mg (n = 10)) was 0 number of subjects (%), the “Total bilirubin increased” value ([1]; 200 mg (n = 10)) was 1 (2.8) number of subjects (%) and the “Alkaline phosphatase increased” value ([1]; 400 mg (n = 10)) was 0 number of subjects (%). For the same compound, the “Any AEs (study drug-related)” value ([1]; 400 mg (n = 10)) was 9 (25) number of subjects (%), the “Bellyache (study drug-related AE)” value ([1]; 400 mg (n = 10)) was 1 (2.8) number of subjects (%) and the “Blood white cells increased” value ([1]; 400 mg (n = 10)) was 0 number of subjects (%). For the same compound, the “Diarrhea (study drug-related AE)” value ([1]; 400 mg (n = 10)) was 9 (25) number of subjects (%), the “Direct bilirubin increased” value ([1]; 400 mg (n = 10)) was 5 (13.9) number of subjects (%) and the “Dizziness (study drug-related AE)” value ([1]; 400 mg (n = 10)) was 0 number of subjects (%). For the same compound, the “Headache (study drug-related AE)” value ([1]; 400 mg (n = 10)) was 0 number of subjects (%), the “Loss of appetite (study drug-related AE)” value ([1]; 400 mg (n = 10)) was 0 number of subjects (%) and the “Nausea (study drug-related AE)” value ([1]; 400 mg (n = 10)) was 0 number of subjects (%). The “Rash (study drug-related AE)” value ([1]; 400 mg (n = 10)) was 0 number of subjects (%), the “Subcutaneous bleeding (double forearm)” value ([1]; 400 mg (n = 10)) was 1 (2.8) number of subjects (%) and the “Total bilirubin increased” value ([1]; 400 mg (n = 10)) was 3 (8.3) number of subjects (%). For the same compound, the half-life ([2]; Female (n = 12)) was 402 ± 72 min, the Tmax ([2]; Female (n = 12)) was 2.8 h and the half-life ([2]; Male (n = 12)) was 366 ± 66 min. For the same compound, the Tmax ([2]; Male (n = 12)) was 3.3 h, the “AUCinf/D, dose-normalized AUCinf” value ([2]; Female (n = 12)) was 2016.33 ± 1124.90* and the “AUClast/D, dose-normalized AUClast” value ([2]; Female (n = 12)) was 1984.33 ± 1809.10*. For the same compound, the “Cmax/D, dose-normalized Cmax” value ([2]; Female (n = 12)) was 24.87 ± 8.23*, the “AUClast/D, dose-normalized AUClast” value ([2]; Male (n = 12)) was 387.86 ± 174.14 and the “Cmax/D, dose-normalized Cmax” value ([2]; Male (n = 12)) was 16.44 ± 2.82. The “inhibition of CYP2C9” value [3] was “moderate inhibitor” and the “substrate of CYP2C9” value [3] was “substrate”.
